# Results as given in US8822468B2 (Novartis AG, priority 2008, dated 2014).
# Target: T1, cMET receptor tyrosine kinase (GST-cMET (969-1390)) (Homo sapiens, UniProt P08581)
# T1 construct: made in house
# Experiment: EPK cMET profiling assay (LanthaScreen TR-FRET antibody based kinase phosphorylation assay)
# Format: biochemical
# Conditions: purified recombinant GST-cMET (969-1390), 2 μM ATP, 50 nM Fluorescein-PolyEAY, 60 minutes at room temperature; read-out: c-Met IC50
# Protocol: A number of compounds of the present invention were assayed in an antibody based kinase phosphorylation assay as follows.
# EPK cMET Profiling Assay:
# The EPK kinase assay for cMET receptor tyrosine kinase was developed, using the purified recombinant GST-fusion protein, containing the cytoplasmic domain of the enzyme. GST-cMET (969-1390) was purified by affinity chromatography.
# The kinase assay is based on the LanthaScreen™ technology. LanthaScreen™ is the detection of Time-Resolved Fluorescence Resonance Energy Transfer (TR-FRET) using lanthanide chelates to measure interactions between various binding partners. In a TR-FRET kinase assay, a long-lifetime lanthanide donor species is conjugated to an antibody that specifically binds to a phosphorylated product of a kinase reaction that is labeled with a suitable acceptor fluorophore. This antibody-mediated interaction brings the lanthanide donor and the acceptor into proximity such that resonance energy transfer can take place, resulting in a detectible increase in the FRET signal.
# The kinase reactions were performed in 384 well microtiter plates in a total reaction volume of 9.05 μL. The assay plates were prepared with 0.05 μL per well of test compound in the appropriate test concentration, as described under “preparation of compound dilutions”. The reactions were started by combining 4.5 μL of ATP solution with 4.5 μL of enzyme-substrate mix (consisting of kinase and substrate). The final concentrations in the kinase reactions were 35 mM Tris/HCl, 1 mM DTT, 0.025% Tween20, 10 μM sodium orthovanadate, 0.25% BSA, 0.6% DMSO, 10 mM MgCl2, 3 mM MnCl2, 2 μM ATP, 50 nM Fluorescein-PolyEAY, and 0.3 nM enzyme.
# The reactions were incubated for 60 minutes at room temperature and stopped by adding 4.5 μL of stop buffer (50 mM EDTA, 0.04% NP40, 20 mM Tris/HCl).
# Subsequently 4.5 μL of detection mix (50 mM Tris/HCl, 2 mM DTT, 0.05% Tween20, 20 μM sodium orthovanadate, 1% BSA, 1.72 μg/ml Tb-PY20 antibody) were added to the stopped reactions. After 30 minutes incubation at room temperature, the plates were measured in a BMG Pherastar fluorescence reader. The effect of compound on the enzymatic activity was in all assays obtained from the linear progress curves and determined from one reading (end point measurement).
# Test compounds were dissolved in DMSO (10 mM) and transferred into 1.4 mL flat bottom or V-shaped Matrix tubes carrying a unique 2D matrix. The stock solutions were stored at −20° C. if not used immediately. For the test procedure the vials were defrosted and identified by a scanner whereby a working sheet was generated that guided the subsequent working steps.
# Compound dilutions were made in 96 well plates. This format enabled the assay of maximally 40 individual test compounds at 8 concentrations (single points) including 4 reference compounds. The dilution protocol included the production of “pre-dilution plates”, “master plates” and “assay plates”.
# Pre-dilution plates: 96 polypropylene well plates were used as pre-dilution plates. A total of 4 pre-dilution plates were prepared including 10 test compounds each on the plate positions A1-A10, one standard compound at A11 and one DMSO control at A12. All dilution steps were done on a HamiltonSTAR robot.
# Master plates: 100 μL of individual compound dilutions including standard compound and controls of the 4 “pre-dilution plates” were transferred into a 384 “master plate” including the following concentrations 1,820, […], 182, 54.6, 18.2, 5.46, 1.82 and 0.546 μM, respectively in 90% of DMSO.
# Assay plates: Identical “assay plates” were then prepared by pipetting 50 nL each of compound dilutions of the “master plates” into 384-well “assay plates” by means of a HummingBird 384-channel dispenser. These plates were used directly for the assay which was performed in a total volume of 9.05 μL. This led to a final compound concentration of 10, 3.0, 1.0, 0.3, 0.1, 0.03, 0.01 and 0.003 μM and a final DMSO concentration of 0.5% in the assay.
# T1 sequence (P08581 969-1390): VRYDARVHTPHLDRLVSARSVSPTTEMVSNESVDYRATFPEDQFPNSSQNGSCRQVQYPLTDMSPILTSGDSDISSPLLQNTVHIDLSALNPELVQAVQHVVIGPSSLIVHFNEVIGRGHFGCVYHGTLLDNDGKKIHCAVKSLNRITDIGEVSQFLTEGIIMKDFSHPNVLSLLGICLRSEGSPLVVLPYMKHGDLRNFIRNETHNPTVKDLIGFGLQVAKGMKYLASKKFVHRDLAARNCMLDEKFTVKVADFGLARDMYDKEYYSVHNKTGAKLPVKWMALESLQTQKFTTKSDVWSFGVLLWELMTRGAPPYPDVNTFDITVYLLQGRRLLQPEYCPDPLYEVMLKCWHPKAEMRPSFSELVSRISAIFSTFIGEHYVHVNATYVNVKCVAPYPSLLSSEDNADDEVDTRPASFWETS
row,SMILES,IC50 [nM]
1,"Brc1ccc(-c2ccc3ncc(Cc4ccc5ncccc5c4)n3n2)cc1 [Example 19, 6-[6-(4-Bromo-phenyl)-imidazo[1,2-b]pyridazin-3-ylmethyl]-quinoline]",215
2,"Nc1cccc(-c2ccc3ncc(Cc4ccc5ncccc5c4)n3n2)c1 [Example 20, 3-(3-Quinolin-6-ylmethyl-imidazo[1,2-b]pyridazin-6-yl)-phenylamine]",60
3,"CC(=O)c1ccc(-c2ccc3ncc(Cc4ccc5ncccc5c4)n3n2)cc1 [Example 21, 1-[4-(3-Quinolin-6-ylmethyl-imidazo[1,2-b]pyridazin-6-yl)-phenyl]-ethanone]",27.5
4,"O=[N+]([O-])c1cccc(-c2ccc3ncc(Cc4ccc5ncccc5c4)n3n2)c1 [Example 22, 6-[6-(3-Nitro-phenyl)-imidazo[1,2-b]pyridazin-3-ylmethyl]-quinoline]",7.4
5,"CSc1ccc(-c2ccc3ncc(Cc4ccc5ncccc5c4)n3n2)cc1 [Example 23, 6-[6-(4-Methylsulfanyl-phenyl)-imidazo[1,2-b]pyridazin-3-ylmethyl]-quinoline]",125
6,"O=Cc1cccc(-c2ccc3ncc(Cc4ccc5ncccc5c4)n3n2)c1 [Example 24, 3-(3-Quinolin-6-ylmethyl-imidazo[1,2-b]pyridazin-6-yl)-benzaldehyde]",23.5
7,"Fc1ccc(-c2ccc3ncc(Cc4ccc5ncccc5c4)n3n2)cc1 [Example 25, 6-[6-(4-Fluoro-phenyl)-imidazo[1,2-b]pyridazin-3-ylmethyl]-quinoline]",48
8,"N#Cc1cccc(-c2ccc3ncc(Cc4ccc5ncccc5c4)n3n2)c1 [Example 26, 3-(3-Quinolin-6-ylmethyl-imidazo[1,2-b]pyridazin-6-yl)-benzonitrile]",20
9,"Clc1ccc(-c2ccc3ncc(Cc4ccc5ncccc5c4)n3n2)cc1 [Example 27, 6-[6-(4-Chloro-phenyl)-imidazo[1,2-b]pyridazin-3-ylmethyl]-quinoline]",110
10,"CC(=O)Nc1cccc(-c2ccc3ncc(Cc4ccc5ncccc5c4)n3n2)c1 [Example 28, N-[3-(3-Quinolin-6-ylmethyl-imidazo[1,2-b]pyridazin-6-yl)-phenyl]-acetamide]",240
11,"c1cncc(-c2ccc3ncc(Cc4ccc5ncccc5c4)n3n2)c1 [Example 29, 6-(6-Pyridin-3-yl-imidazo[1,2-b]pyridazin-3-ylmethyl)-quinoline]",40
12,"c1ccc(-c2ccc3ncc(Cc4ccc5ncccc5c4)n3n2)cc1 [Example 30, 6-(6-Phenyl-imidazo[1,2-b]pyridazin-3-ylmethyl)-quinoline]",91
13,"c1cnc2ccc(Cc3cnc4ccc(-c5cc6ccccc6o5)nn34)cc2c1 [Example 31, 6-(6-Benzofuran-2-yl-imidazo[1,2-b]pyridazin-3-ylmethyl)-quinoline]",230
14,"FC(F)(F)c1ccc(-c2ccc3ncc(Cc4ccc5ncccc5c4)n3n2)cc1 [Example 33, 6-[6-(4-Trifluoromethyl-phenyl)-imidazo[1,2-b]pyridazin-3-ylmethyl]-quinoline]",370
15,"c1ccc(-c2cc(-c3ccc4ncc(Cc5ccc6ncccc6c5)n4n3)on2)cc1 [Example 34, 6-[6-(3-Phenyl-isoxazol-5-yl)-imidazo[1,2-b]pyridazin-3-ylmethyl]-quinoline]",230
16,"COc1ccc(-c2ccc3ncc(Cc4ccc5ncccc5c4)n3n2)cc1 [Example 35, 6-[6-(4-Methoxy-phenyl)-imidazo[1,2-b]pyridazin-3-ylmethyl]-quinoline]",79
17,"CN(C)c1cccc(-c2ccc3ncc(Cc4ccc5ncccc5c4)n3n2)c1 [Example 36, Dimethyl-[3-(3-quinolin-6-ylmethyl-imidazo[1,2-b]pyridazin-6-yl)-phenyl]-amine]",65

row,SMILES,IC50 [nM]
1,"Cn1ccc2cc(-c3ccc4ncc(Cc5ccc6ncccc6c5)n4n3)ccc21 [Example 37, 6-[6-(1-Methyl-1H-indol-5-yl)-imidazo[1,2-b]pyridazin-3-ylmethyl]-quinoline]",30
2,"c1cnc2ccc(Cc3cnc4ccc(-c5cc6ccccc6s5)nn34)cc2c1 [Example 38, 6-(6-Benzo[b]thiophen-2-yl-imidazo[1,2-b]pyridazin-3-ylmethyl)-quinoline]",39
3,"c1cnc2ccc(Cc3cnc4ccc(-c5cnc6ccccc6c5)nn34)cc2c1 [Example 39, 6-(6-Quinolin-3-yl-imidazo[1,2-b]pyridazin-3-ylmethyl)-quinoline]",72
4,"COc1ccc2cc(-c3ccc4ncc(Cc5ccc6ncccc6c5)n4n3)ccc2c1 [Example 40, 6-[6-(6-Methoxy-naphthalen-2-yl)-imidazo[1,2-b]pyridazin-3-ylmethyl]-quinoline]",130
5,"Clc1ccc(-c2ccc3ncc(Cc4ccc5ncccc5c4)n3n2)s1 [Example 41, 6-[6-(5-Chloro-thiophen-2-yl)-imidazo[1,2-b]pyridazin-3-ylmethyl]-quinoline]",56
6,"c1cnc2ccc(Cc3cnc4ccc(-c5cncc6ccccc56)nn34)cc2c1 [Example 42, 6-(6-Isoquinolin-4-yl-imidazo[1,2-b]pyridazin-3-ylmethyl)-quinoline]",450
7,"FC(F)(F)Oc1ccc(-c2ccc3ncc(Cc4ccc5ncccc5c4)n3n2)cc1 [Example 43, 6-[6-(4-Trifluoromethoxy-phenyl)-imidazo[1,2-b]pyridazin-3-ylmethyl]-quinoline]",350
8,"c1cnc2ccc(Cc3cnc4ccc(-c5ccc6[nH]ccc6c5)nn34)cc2c1 [Example 45, 6-[6-(1H-Indol-5-yl)-imidazo[1,2-b]pyridazin-3-ylmethyl]-quinoline]",100
9,"CCCn1cc(-c2ccc3ncc(Cc4ccc5ncccc5c4)n3n2)cn1 [Example 46, 6-[6-(1-Propyl-1H-pyrazol-4-yl)-imidazo[1,2-b]pyridazin-3-ylmethyl]-quinoline]",57
10,"Clc1ccc(-c2ccc3ncc(Cc4ccc5ncccc5c4)n3n2)cn1 [Example 47, 6-[6-(6-Chloro-pyridin-3-yl)-imidazo[1,2-b]pyridazin-3-ylmethyl]-quinoline]",100
11,"Clc1ccc(-c2ccc(-c3ccc4ncc(Cc5ccc6ncccc6c5)n4n3)cn2)cn1 [Example 48, 6′-Chloro-5-(3-quinolin-6-ylmethyl-imidazo[1,2-b]pyridazin-6-yl)-[2,3′]bipyridinyl]",190
12,"Clc1cc(-c2ccc3ncc(Cc4ccc5ncccc5c4)n3n2)ccn1 [Example 49, 6-[6-(2-Chloro-pyridin-4-yl)-imidazo[1,2-b]pyridazin-3-ylmethyl]-quinoline]",23
13,"Clc1cc(-c2cc(-c3ccc4ncc(Cc5ccc6ncccc6c5)n4n3)ccn2)ccn1 [Example 50, 2′-Chloro-4-(3-quinolin-6-ylmethyl-imidazo[1,2-b]pyridazin-6-yl)-[2,4′]bipyridinyl]",950
14,"c1cnc2ccc(Cc3cnc4ccc(-c5ccc6c(c5)OCO6)nn34)cc2c1 [Example 51, 6-(6-Benzo[1,3]dioxol-5-yl-imidazo[1,2-b]pyridazin-3-ylmethyl)-quinoline]",95
15,"c1cnc2ccc(Cc3cnc4ccc(-c5ccc6nonc6c5)nn34)cc2c1 [Example 52, 6-(6-Benzo[1,2,5]oxadiazol-5-yl-imidazo[1,2-b]pyridazin-3-ylmethyl)-quinoline]",240
16,"Clc1cccc(-c2ccc3ncc(Cc4ccc5ncccc5c4)n3n2)c1 [Example 53, 6-[6-(3-Chloro-phenyl)-imidazo[1,2-b]pyridazin-3-ylmethyl]-quinoline]",110
